Source: patent US8440656B2, “Methods of treating pulmonary diseases and disorders by modulating calcium/calmodulin dependent protein kinase II activity” (University of Iowa Research Foundation, priority 2009, dated 2013)
Where two headings read alike, the source gives them in different places.

Assays:
[1] = target: CaMKIIδ (Homo sapiens, UniProt Q13557); details: cited from earlier work
[2] = system: ovalbumin-sensitized C6B2 mice (asthma model); experiment: Ovalbumin-sensitized mouse asthma model, intranasal KN-93; assay type: in vivo; details: for airway resistance (Flexivent) on Methacholine challenge: KN93 100 mM intranasal during ovalbumin inhalations, at 50 and 100 μg/ml Methacholine, p<0.05, vs untreated; for Bronchoalveolar lavage eosinophils: KN93 intranasal, compared with untreated control mice
Description: (§1) FIG. 4. Effects of inhaled KN-93 on asthma. (A) C6B2 mice were sensitized by two i.p. injections of ovalbumin, followed by three 30 min inhalations of ovalbumin in the presence or absence of the CaMKII inhibitor KN93 (100 μM) intranasal. Airway reactivity was determined by Methacholine challenge using the Flexivent-measured airway resistance as the readout. (B) Bronchoalveolar lavage eosinophils in mice treated with KN 93 compared with untreated control mice.
In order to test the concept that CaMKII inhibition can reduce asthma symptoms, a validated asthma model was utilized. This model induces airway inflammation and hyper-reactivity by intra-peritoneal sensitization and inhalational challenge with the experimental allergen, ovalbumin. The “asthmatic” mice are then characterized by a graded inhalational challenge protocol using aerosolized methacholine. (See Jain et al., 2003). This approach is similar to that used in humans with clinical asthma.
as §1, with “C6B2” for “FIG. 4. Effects of inhaled KN-93 on asthma. (A) C6B2”, “mM)” for “μM)”, “[…] (* p<0.05, n=4 per group) (FIG. 4A).” for “(B)”, “eosinophils (a measure of allergic airway inflammation) were reduced” for “eosinophils”, “mice (FIG. 4B).” for “mice.”

CaMKIIδ, sequence (Q13557 whole entry): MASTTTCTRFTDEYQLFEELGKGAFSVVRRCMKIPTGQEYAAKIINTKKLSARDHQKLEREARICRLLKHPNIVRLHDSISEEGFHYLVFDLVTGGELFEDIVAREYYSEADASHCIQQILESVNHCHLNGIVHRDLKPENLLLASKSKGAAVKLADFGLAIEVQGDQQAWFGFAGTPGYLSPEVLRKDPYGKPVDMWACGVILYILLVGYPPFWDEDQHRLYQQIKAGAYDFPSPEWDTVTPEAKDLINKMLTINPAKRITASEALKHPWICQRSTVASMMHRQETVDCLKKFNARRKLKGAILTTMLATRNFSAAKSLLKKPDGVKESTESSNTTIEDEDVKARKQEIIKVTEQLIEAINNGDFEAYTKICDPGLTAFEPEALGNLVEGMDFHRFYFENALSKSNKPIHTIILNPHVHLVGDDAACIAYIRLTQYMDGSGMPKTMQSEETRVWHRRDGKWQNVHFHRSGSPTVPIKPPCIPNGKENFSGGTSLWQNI

Compound: NCCCn1cc(C2=C(c3csc4ccccc34)C(=O)NC2=O)c2ccccc21 [Compound 2]
- IC50 ([1]; old, read-out: IC50 (μM) old): < 0.039 µM

Compound: CC(C)(C)OC(=O)NCCCn1cc(C2=C(c3csc4ccccc34)C(=O)NC2=O)c2ccccc21 [Compound 13b]
- IC50 [1]: > 20 µM

Compound: CC(C)(C)OC(=O)NCCCn1cc(C2=C(c3ccccc3)C(=O)NC2=O)c2ccccc21 [Compound 13g]
- IC50 [1]: > 20 µM

Compound: CC(C)(C)OC(=O)NCCCn1cc(C2=C(c3cccs3)C(=O)NC2=O)c2ccccc21 [Compound 13l]
- IC50 [1]: > 20 µM

Compound: NCCCn1cc(C2=C(c3ccc4ccccc4n3)C(=O)NC2=O)c2ccccc21 [Compound 14f]
- IC50 [1]: > 20 µM

Compound: CN1C(=O)C(c2c[nH]c3ccc(Br)cc23)=C(c2cn(CCCN)c3ccccc23)C1=O [Compound 16t]
- IC50 [1]: > 20 µM

Compound: COc1ccc(S(=O)(=O)N(CCO)c2ccccc2CN(C)C/C=C/c2ccc(Cl)cc2)cc1 [KN-93]
- airway resistance (Flexivent) on Methacholine challenge [2]: reduced airway resistance measurements
- airway resistance (Flexivent) on Methacholine challenge ([2]; listed as KN93): significant reduction
- Bronchoalveolar lavage eosinophils [2]: reduced eosinophils
- Bronchoalveolar lavage eosinophils ([2]; listed as KN 93): reduced
